Drawing on patent US20250282760A1 (Merck Sharp & Dohme LLC, priority 2022, published 2025), this text covers IC50 and Emax for 16 compounds.

By IC50 is commonly meant the concentration needed to halve the response being measured. As a reminder, the Emax is the size of the effect at its maximum, as opposed to the concentration needed.

The target of the experiment is T1, human OX2R (Homo sapiens, UniProt O43614).
T1 construct: expressed in transfected cells; host or cells: Chinese hamster ovary (CHO) cells, kept under G418 selection
T1 sequence (O43614 1-444): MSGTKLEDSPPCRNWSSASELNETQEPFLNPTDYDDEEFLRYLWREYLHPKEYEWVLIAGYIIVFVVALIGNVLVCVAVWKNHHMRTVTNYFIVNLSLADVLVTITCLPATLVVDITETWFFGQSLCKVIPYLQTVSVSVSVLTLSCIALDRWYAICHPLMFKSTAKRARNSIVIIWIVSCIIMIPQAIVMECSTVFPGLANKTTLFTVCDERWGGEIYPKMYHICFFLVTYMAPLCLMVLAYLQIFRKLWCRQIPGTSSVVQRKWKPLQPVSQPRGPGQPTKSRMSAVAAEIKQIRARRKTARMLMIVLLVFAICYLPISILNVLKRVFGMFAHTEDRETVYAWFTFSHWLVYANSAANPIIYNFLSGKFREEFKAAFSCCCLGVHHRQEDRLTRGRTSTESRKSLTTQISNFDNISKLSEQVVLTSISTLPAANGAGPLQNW
Nature of the experiment: IPOne (IP-1 accumulation) assay of orexin receptor agonist activity in CHO cells expressing human OX2R. Conditions: for IC50: CHO cells expressing human OX2R, IP-One assay, 2 hours incubation, four parameter logistic fit, read-out: hOX2R_IP IC50; for Emax: CHO, percent activity at maximum tested concentration, relative to reference compound at 1 uM (100% activity) for human OX2R. The class given is cell-based. From the text:
The utility of the compounds in accordance with the present invention as orexin receptor OX1R and/or OX2R agonists may be readily determined without undue experimentation by methodology well known in the art. Both the OX1R and/or OX2R G-coupled protein receptors (GPCRs) couple through the Gαq signaling pathway, which ultimately promotes calcium mobilization via inositol triphosphate (IP3) production. […] The utility of the compounds in accordance with the present invention as orexin receptor OX1R and/or OX2R agonists may be determined utilizing this assay.
In a typical experiment, the OX1 and OX2 receptor agonist activity is determined in accordance with the following general experimental method. Chinese hamster ovary (CHO) cells expressing human OX1R and/or the human OX2R were grown in Iscove's modified DMEM containing glutaMAX™, 1% G418, 100 U/mL penicillin, 100 μg/mL streptomycin and 10% heat-inactivated qualified fetal bovine serum (FBS). […] During this incubation, IP-one detection reagents were prepared (38:1:1 lysis buffer:D2:AB-cryptate reagents).
For each compound, data were fit to a four parameter logistic fit (ActivityBase software) and the EC50 was reported as the inflection point of the resulting curve. Percent effect for each test compound was determined as the percentage of sample raw value/mean max effect, where the mean max effect was derived from the mean raw value of 32 control wells per assay plate (using Orexin A (cat #003-30) at 1 μM for human OX1R and a reference compound at 1 uM with 100% activity previously established by comparison to Orexin A for human OX2R). The intrinsic orexin receptor agonist activity of a compound which may be used in the present invention may be determined by these assays.

For `Cc1ccsc1C(=O)N1CCN(S(=O)(=O)c2ccccc2)CC1C(=O)NCc1ccc2ccccc2c1` (centres unmarked) [Example 10-12, 1-(3-methylthiophene-2-carbonyl)-N-(naphthalen-2-ylmethyl)-4-(phenylsulfonyl)piperazine-2-carboxamide], the IC50 amounted to 2.43 µM and the Emax was 89.4%.

`CC(=O)N1CCN(S(=O)(=O)c2ccccc2)CC1C(=O)NCc1ccc2ccccc2c1` (centres unmarked) [Example 11, 1-acetyl-N-(naphthalen-2-ylmethyl)-4-(phenylsulfonyl)piperazine-2-carboxamide]: the IC50 worked out at 34.7 µM and the Emax worked out at 81.6%.

In the case of `CC(C)C(=O)N1C(C)CN(S(=O)(=O)c2ccccc2)CC1C(=O)NCc1ccc(-c2cccnc2)cc1` (centres unmarked) [Example 42-2, 1-isobutyryl-6-methyl-4-(phenylsulfonyl)-N-(4-(pyridin-3-yl)benzyl)piperazine-2-carboxamide], the IC50 came to 1.01 µM and the Emax is 20.6%.

On to `CC(C)C(=O)N1C(C)CN(S(=O)(=O)c2ccccc2)CC1C(=O)NCc1ccc(-c2ccncc2)cc1` (centres unmarked) [Example 42-3, 1-isobutyryl-6-methyl-4-(phenylsulfonyl)-N-(4-(pyridin-4-yl)benzyl)piperazine-2-carboxamide], for which the concentration for half-maximal inhibition (IC50) was determined as 1.01 µM and the Emax stood at 4.39%.

In the case of `CC(C)C(=O)N1C(C(=O)NCc2ccc(-c3ccco3)cc2)CN(S(=O)(=O)c2ccccc2)CC1(C)C` (centres unmarked) [Example 83, N-(4-(furan-2-yl)benzyl)-1-isobutyryl-6,6-dimethyl-4-(phenylsulfonyl)piperazine-2-carboxamide], the IC50 was found to be 0.0939 µM and the Emax was found to be 89.9%.

Take `Cc1ccc(S(=O)(=O)N2CCN(C(=O)c3cccs3)C(C(=O)NCc3ccc4ccccc4c3)C2)cc1` (centres unmarked) [Example 89-1, N-(naphthalen-2-ylmethyl)-1-(thiophene-2-carbonyl)-4-tosylpiperazine-2-carboxamide]: the IC50 is 5.72 µM and the Emax was 60.1%.

As for `Cc1cccc(S(=O)(=O)N2CCN(C(=O)c3cccs3)C(C(=O)NCc3ccc4ccccc4c3)C2)c1` (centres unmarked) [Example 89-2, 4-[(3-methylphenyl)sulfonyl]-N-[(naphthalen-2-yl)methyl]-1-(thiophene-2-carbonyl)piperazine-2-carboxamide], the IC50 is 2.67 µM and the Emax was found to be 92%.

In the case of `Cc1ccccc1S(=O)(=O)N1CCN(C(=O)c2cccs2)C(C(=O)NCc2ccc3ccccc3c2)C1` (centres unmarked) [Example 89-3, 4-[(2-methylphenyl)sulfonyl]-N-[(naphthalen-2-yl)methyl]-1-(thiophene-2-carbonyl)piperazine-2-carboxamide], the IC50 came out at 6.57 µM and the Emax was 82.7%.

Consider `O=C(NCc1ccc2ccccc2c1)C1CN(S(=O)(=O)c2ccccc2Cl)CCN1C(=O)c1cccs1` (centres unmarked) [Example 89-4, 4-[(2-chlorophenyl)sulfonyl]-N-[(naphthalen-2-yl)methyl]-1-(thiophene-2-carbonyl)piperazine-2-carboxamide], for which the IC50 was 5.28 µM and the Emax worked out at 75.5%.

Take `N#Cc1ccc(S(=O)(=O)N2CCN(C(=O)c3cccs3)C(C(=O)NCc3ccc4ccccc4c3)C2)cc1` (centres unmarked) [Example 89-5, 4-[(4-cyanophenyl)sulfonyl]-N-[(naphthalen-2-yl)methyl]-1-(thiophene-2-carbonyl)piperazine-2-carboxamide]: the IC50 worked out at 100 µM and the Emax stood at 23.1%.

As to `N#Cc1cccc(S(=O)(=O)N2CCN(C(=O)c3cccs3)C(C(=O)NCc3ccc4ccccc4c3)C2)c1` (centres unmarked) [Example 89-6, 4-[(3-cyanophenyl)sulfonyl]-N-[(naphthalen-2-yl)methyl]-1-(thiophene-2-carbonyl)piperazine-2-carboxamide], the IC50 worked out at 6.09 µM and the maximal effect (Emax) worked out at 67.5%.

As to `COc1ccc(S(=O)(=O)N2CCN(C(=O)c3cccs3)C(C(=O)NCc3ccc4ccccc4c3)C2)cc1` (centres unmarked) [Example 89-7, 4-[(4-methoxyphenyl)sulfonyl]-N-[(naphthalen-2-yl)methyl]-1-(thiophene-2-carbonyl)piperazine-2-carboxamide], the IC50 was 2.6 µM and the Emax was 99.7%.

`COc1cccc(S(=O)(=O)N2CCN(C(=O)c3cccs3)C(C(=O)NCc3ccc4ccccc4c3)C2)c1` (centres unmarked) [Example 89-8, 4-[(3-methoxyphenyl)sulfonyl]-N-[(naphthalen-2-yl)methyl]-1-(thiophene-2-carbonyl)piperazine-2-carboxamide]: the concentration for half-maximal inhibition (IC50) is 8.71 µM and the Emax is 75.9%.

Regarding `O=C(NCc1ccc2ccccc2c1)C1CN(S(=O)(=O)c2ccc(F)cc2)CCN1C(=O)c1cccs1` (centres unmarked) [Example 89-9, 4-[(4-fluorophenyl)sulfonyl]-N-[(naphthalen-2-yl)methyl]-1-(thiophene-2-carbonyl)piperazine-2-carboxamide], the IC50 is 5.51 µM and the Emax came out at 89.6%.

Regarding `O=C(NCc1ccc2ccccc2c1)C1CN(S(=O)(=O)c2cccc(F)c2)CCN1C(=O)c1cccs1` (centres unmarked) [Example 89-10, 4-[(3-fluorophenyl)sulfonyl]-N-[(naphthalen-2-yl)methyl]-1-(thiophene-2-carbonyl)piperazine-2-carboxamide], the IC50 was 5.3 µM and the Emax came to 83.6%.

In the case of `O=C(NCc1ccc2ccccc2c1)C1CN(S(=O)(=O)c2ccccc2F)CCN1C(=O)c1cccs1` (centres unmarked) [Example 89-11, 4-[(2-fluorophenyl)sulfonyl]-N-[(naphthalen-2-yl)methyl]-1-(thiophene-2-carbonyl)piperazine-2-carboxamide], the IC50 was 5.03 µM and the maximum response (Emax) stood at 94.5%.
